Columns and labels:
[1] = system: SARS-CoV-2 original Wuhan strain (hCoV-19/Japan/TY/WK-521,2019); assay: Antiviral activity assay in Vero E6 cells, qRT-PCR of supernatant; type: cell-based; settings: Severe acute respiratory syndrome coronavirus 2, Vero C1008, Vero E6, 72 h pretreatment, MOI 0.02, 48 h pi, compound concentration (for 5-ALA/SFC the 5-ALA concentration, ratio 4:1)
SARS-CoV-2 = system: SARS-CoV-2; design: method as in PMID 31781665; settings: SFC only; cited from earlier work
[2] = Cell viability assay (MTT); type: cell-based; settings: African green monkey, Vero E6 cells; Vero E6, 3 days, in parallel with Delta antiviral assay; 5-ALA concentration
Experimental: (§1) Vero E6 cells in 96-well plates were treated with samples for 3 days, and a cell viability assay was conducted in parallel with an antiviral assay. To determine the concentration that triggered a 50% reduction in cell survival (CC50), the results of the cell viability assay were evaluated by 3-(4,5-dimethylthiazol-2-yl)-2,5-diphenyl tetrazolium bromide according to the manufacturer’s instructions (Promega, Madison, WI, USA). Optical density was measured at 570 nm using a microplate reader (Synergy H1 M; BioTek Instruments, Winooski, VT, USA). Cell viability was determined using the following equation: cell viability (%) = (sample value)/(cell control) × 100. In addition, viral inhibition by 50% (IC50) was calculated as viral inhibition (%) = quantity of virus copies in (virus control − sample)/virus control × 100.

Vero E6 cells = assay: Cell viability assay (MTT); type: cell-based; settings: Vero E6, 3 days, 5-ALA concentration
Experimental: as §1

[3] = design: method as in PMID 11961050; settings: oral route; cited from earlier work

Row | Molecule | IC50 [1] [µM] | antiviral activity (SARS-CoV-2) | CC50 at 3 days [2] [µM] | CC50 (Vero E6 cells; in parallel with Alpha antiviral assay) [µM] | CC50 (Vero E6 cells; in parallel with Beta antiviral assay) [µM] | CC50 (Vero E6 cells; in parallel with Gamma antiviral assay) [µM] | CC50 (Vero E6 cells; in parallel with Wuhan antiviral assay) [µM] | bioavailability [3]
1 | CCC(CC)COC(=O)[C@H](C)N[P@](=O)(OC[C@H]1O[C@@](C#N)(c2ccc3c(N)ncnn23)[C@H](O)[C@@H]1O)Oc1ccccc1 [remdesivir, Remdesivir] | 0.1 to 1 |  |  |  |  |  |  | 
2 | Sodium ferrous citrate [SFC] |  | did not show antiviral activity |  |  |  |  |  | 
3 | NCC(=O)CCC(=O)O [5-ALA, 5-aminolevulinic acid] | 207 |  | > 2000 | > 2000 | > 2000 | > 2000 | > 2000 | high bioavailability
